Results on 2 compounds are retold here after patent publication US10801025B2, “MicroRNA therapy for pancreatic cancer” (Indiana University Research and Technology Corporation, priority 2016, dated 2020).

Molecules are shown by their SMILES.

The subject of assay [1] is Panc-1 and MIA PaCa-2 cells. The experiment in a line: Cell viability, Cell Counting Kit-8 (CCK8). In kind it is cell-based, human. Particulars: 10 μM BafA1 in combination with 10 μM gemcitabine, 48 hours, compared to gemcitabine alone. On the procedure: 5×10^3 pancreatic cancer cells per well (Panc-1, MIA PaCa-2, or COLO 357) were plated in 96-well plates and grown at 37° C. for 24 hours. Cells were then transfected with 20 nM mimic control or miR-29a mimic using DharmaFECT® 1 for 24 hours. Transfection media was then removed and replaced with complete media, and cells were allowed to recover for 24 hours and subsequently treated with varying concentrations of gemcitabine (0 μM, 0.1 μM, 1 μM, 10 μM, 100 μM). Cell viability was measured at 72 hours post-gemcitabine treatment by adding 10 μl Cell Counting Kit-8 (CCK8) reagent (Dojindo, CK04) and absorbance was measured at 450 nm. For cell viability with Chloroquine (CQ) and BafilomycinA1 (BafA1) treatment, cells were treated with 25 μM CQ (Sigma Aldrich, C6628) or 10 μM BafA1 (Sigma Aldrich, B1793) in combination with 10 μM gemcitabine for 48 hours, and viability was measured using CCK8 kit as described above.
(In general: Tetrazolium assays rely on reduction of a dye to a coloured formazan, in cell work by metabolically active cells.)

For another assay, the system named is Panc-1 cells. Description: Autophagy flux immunoblotting (LC3B, p62). Format: cell-based, human. As to conditions: 25 μM CQ added to control mimic cells. Background: A western blot detects proteins with antibodies after separation by electrophoresis.

Description for Panc-1 cells: Cells were then transfected with 10 nM control or miR-29a mimics using DharmaFECT®. 24 hours post-transfection, cells were treated with 25 μM CQ in complete media for 3-6 hours. Subsequently, total proteins were harvested and subjected to western blot analysis as described above.

In the case of `CO/C1=C\C(C)=C\[C@@H](C)[C@@H](O)[C@@H](C)C/C(C)=C/C=C/[C@H](OC)[C@@H]([C@@H](C)[C@@H](O)[C@H](C)[C@@]2(O)C[C@@H](O)[C@H](C)[C@@H](C(C)C)O2)OC1=O` [BafA1, BafilomycinA1], the cancer cell viability entry in assay [1] is “decreased cancer cell viability”.

As for `CCN(CC)CCCC(C)Nc1ccnc2cc(Cl)ccc12` (centres unmarked) [CQ, Chloroquine], the “LC3BI and II and p62 accumulation” value in the assay on Panc-1 cells is “robust net increase”.
